“Also recorded” adds a separate entry of the source.
Columns and labels:
IFN-α [1] = assay: IFN-α ELISA on BMDM culture medium; type: cell-based, mouse; conditions: 24 h after incubation
Protocol: (§1) ELISA. Mouse high-sensitivity IFN-α ELISA kit (42115-1) and IFN-β ELISA kit (42410-1) were purchased from PBL Assay Science. Mouse CTX-I ELISA kit (AC-06F1) and mouse PINP ELISA kit (AC-33F1) were purchased from Immunodiagnostic Systems. ELISA was performed using culture medium, serum, and bone marrow lysates. Serum was obtained from whole blood that was collected from a submandibular vein via facial vein puncture, coagulated for 30 minutes at room temperature, followed by centrifugation (2,000 ×g for 10 min, 4° C.) and collection of the supernatant (serum). Bone marrow was homogenized in a lysis buffer containing protease inhibitors at 4° C. for 30 minutes. ELISA was conducted in accordance with the manufacturer's instructions. A standard curve was performed for each experiment.
In vitro induction of osteoclastogenesis and TRAP staining. For in vitro drug treatment, the RAW 264.7 cells were incubated with 35 ng/ml RANKL for six days. Isolated bone marrow cells were cultured overnight in α-MEM media containing 10% fetal bovine serum and 1% antibiotic-antimycotic solution. The suspended cells were collected and incubated with 20 ng/ml MCSF for 3 days to obtain bone marrow-derived macrophage (BMDM). The attached cells were further activated by 35 ng/ml RANKL and 20 ng/ml MCSF. Drug treatment was performed in tandem with RANKL. Culture medium and co-cultured reagents were changed every 3 days. […]

tumor-bearing femora = assay: In vivo X-ray radiography of bone destruction, LLC model; parameters: species or system mouse; conditions: for bone destruction score: LLC model, twice i.p.
Source text: In vivo X-ray radiography. Osteolytic bone destruction was continuously evaluated by radiography using the MultiFocus by Faxitron system (Faxitron Bioptics LLC, Tucson, Ariz.). Radiographs of tumor-bearing femora were rated for bone destruction on a 0-5 score scale based on previous study: 0 for normal bone at baseline without tumor inoculation; 1 for one to three radiolucent lesions indicative of bone destruction compared to baseline; 2 for increased number of lesions (three to six lesions) and loss of medullary bone; 3 for loss of medullary bone and erosion of cortical bone; 4 for full-thickness unicortical bone loss; 5 for full-thickness bicortical bone loss and displaced skeletal fracture. All radiographic image quantifications were completed by an experimenter who was blinded to the experimental conditions.

[2] = test system: mice with intrafemoral Lewis lung carcinoma (LLC); assay: LLC bone cancer pain model, systemic (i.p.) treatment, behavior tests and body weight; type: in vivo, mouse; conditions: for spontaneous and ongoing pain (flinching, guarding): d14; for body weight / cancer-induced cold allodynia / cancer-induced mechanical allodynia (paw withdrawal threshold): twice i.p.; for cancer-induced mechanical allodynia (paw withdrawal threshold): DMXAA, ADU-S100 20 mg/kg, ZA 100 μg/kg; for acute effect on bone cancer pain: d11, 4 h after single i.p. injection
Protocol: Bone cancer pain model. The murine cell lines LLC1, LL/2-Luc2 or E0771 were lightly digested using 0.05% trypsin, followed by centrifugation to remove poorly digested cell clusters. Cells were then resuspended in PBS at a concentration of 1×10^8 cells/ml. The inoculation was performed as previously described (Wang, K. et al. “PD-1 blockade inhibits osteoclast formation and murine bone cancer pain.” The Journal of clinical investigation, (2020); Wang, Z. et al. “Anti-PD-1 treatment impairs opioid antinociception in rodents and nonhuman primates.” Sci Transl Med 12 (2020)). Briefly, mice were anesthetized with 4% isoflurane and the left leg was shaved and the skin disinfected with 10% povidone-iodine and 75% ethanol. A superficial incision (0.5-1 cm) was made near the knee joint, exposing the patellar ligament. […] The syringe contents were slowly injected into the femoral cavity over a 2-minute interval. To prevent further leakage of tumor cells outside of the bone cavity, the outer injection site was sealed with silicone adhesive (Kwik-Sil, World Precision Instruments, US). Animals with surgery related movement dysfunction or with outside bone tumor injection were excluded from the study. Drug treatment. […] All other reagents were dissolved in sterile saline or PBS. For experiments utilizing rabbit anti-IFN-α or -β neutralizing antibodies, a polyclonal rabbit IgG antibody served as the control. […] Behavior tests. All the behavioral tests were conducted in a blinded manner and performed during between the hours of 9:00-16:00. Animals were habituated in a light and humidity controlled testing environment for at least 2 days prior to baseline testing. For Von Frey testing, mice were confined to individual 5×5 cm boxes placed on an elevated wire grid. A blinded experimenter stimulated their hindpaws using a series of von Frey filaments with logarithmically increasing stiffness (0.02-2.56 g, Stoelting). Each filament was applied perpendicularly to the central plantar surface. The 50% paw withdrawal threshold was determined using Dixon's up-down method.

IFN-α [3] = assay: IFN-α ELISA in serum and bone marrow lysate after i.p. STING agonist, LLC model; type: in vivo, mouse; conditions: for increase of serum levels of IFN-α: 4 h after a single i.p. injection 20 mg/kg on d3, vs vehicle; for IFN-α in bone marrow (BM) lysate: 4 h after i.p., d3
Protocol: as §1

| Structure (SMILES) | IFN-α levels in the culture medium (IFN-α [1]) | bone destruction score (tumor-bearing femora) | spontaneous and ongoing pain (flinching, guarding) ([2]; LLC model) | withdrawal frequency to low-threshold stimulation (0.16 g Von Frey filament) ([2]; LLC model, i.p. at d3 and d10) | body weight ([2]; LLC model) | cancer-induced cold allodynia ([2]; LLC model) | cancer-induced mechanical allodynia (paw withdrawal threshold) ([2]; LLC model) | acute effect on bone cancer pain [2] | increase of serum levels of IFN-α (IFN-α [3]) | IFN-α in bone marrow (BM) lysate (IFN-α [3]) | bone destruction in Batf3^−/− mice (tumor-bearing femora; 20 mg/kg i.p. d3 and d7) | bone destruction score, WT and Rag1^−/− (tumor-bearing femora; 20 mg/kg i.p. d3 and d7) | bone destruction score, WT vs STING^gt/gt (tumor-bearing femora; 20 mg/kg i.p. d3 and d7) | bone destruction score, WT vs Ifnar1^−/− (tumor-bearing femora; d11 and d15) | mechanical and cold allodynia, WT and Rag1^−/− ([2]; 20 mg/kg i.p. d3 and d7) | mechanical and cold allodynia, WT vs Ifnar1^−/− ([2]; 20 mg/kg i.p. d3 and d7) | mechanical and cold allodynia, WT vs STING^gt/gt ([2]; 20 mg/kg i.p. d3 and d7) | mechanical or cold allodynia in Batf3^−/− mice ([2]; 20 mg/kg i.p. d3 and d7) | acute effect on mechanical and cold allodynia, WT vs STING^gt/gt or Ifnar1^−/− ([2]; 20 mg/kg i.p., 4 h) | acute antinociceptive effects, WT vs Ifnar1-cKO ([2]; single 20 mg/kg i.p.) |
| --- | --- | --- | --- | --- | --- | --- | --- | --- | --- | --- | --- | --- | --- | --- | --- | --- | --- | --- | --- | --- |
| Nc1ncnc2c1ncn2[C@@H]1O[C@@H]2COP(=O)([S-])O[C@@H]3[C@H](O)[C@@H](COP([O-])(=S)O[C@H]2[C@H]1O)O[C@H]3n1cnc2c(N)ncnc21.[Na+].[Na+] (stereo partly drawn) [ADU-S100, (2′-5′)-[P(R)]-5′-O-[(R)-hydroxymercaptophosphinyl]-P-thioadenylyl-adenosine cyclic dinucleotide] | drastic increase in IFN-α and IFN-β levels | reduced the bone destruction score at d11 and d15 | exhibited reduced spontaneous and ongoing pain | could significantly attenuate mechanical allodynia in both measures on d10 and d14 | no effect on overall body weight | reduced cold allodynia on both d10 and d14 | could significantly attenuate mechanical allodynia in both measures on d10 and d14 | substantial reduction in mechanical allodynia, cold allodynia, and spontaneous pain | approximately 1000 fold | sharply increased | – | – | – | – | – | – | – | – | – | – |
| Cc1ccc2c(=O)c3cccc(CC(=O)O)c3oc2c1C [DMXAA, 2-(5,6-dimethyl-9-oxo-9H-xanthen-4-yl)acetic acid] | drastic increase in IFN-α and IFN-β levels | decreased the bone destruction score on d8, d11 and d15 | attenuated measures of spontaneous and ongoing pain | – | no differences in body weight; also recorded: did not see body weight changes | significantly reduced | significantly reduced mechanical allodynia on d7, d10 and d14 | substantial reduction in mechanical allodynia, cold allodynia, and spontaneous pain | approximately 1000 fold | sharply increased | reduced bone destruction on d8 and d11 but not d15 in Batf3^−/− mice | improvement in the bone destruction score in both WT and Rag1^−/− mice at d11, but not at d15 | reduction in the bone destruction score in DMXAA-treated WT mice at d11 and d15 after tumor inoculation, and this effect was abolished in STING^gt/gt mice | significantly reduced the bone destruction score without changing overall body weight in WT mice, but this effect was abolished in Ifnar1^−/− mice | reduced by DMXAA treatment in both WT and Rag1^−/− mice at early stages (7 d and 10 d), but not at later stages | effectively attenuated cancer-induced mechanical allodynia and cold allodynia in WT mice but not Ifnar1^−/− mice | significantly attenuated mechanical and cold allodynia in WT mice, and this effect was abolished in STING^gt/gt mice | could attenuate mechanical allodynia or cold allodynia in Batf3^−/− mice on d7 and d10 but not day 14 | could reduce mechanical allodynia and cold allodynia in WT mice but not in STING^gt/gt mice or Ifnar1^−/− mice | present in WT, but not Ifnar1-cKO littermates |
